Consider one molecule from patent publication US20100317688A1, “2-HETEROAROYLIMIDAZOL[1,2-a]PYRIDINE DERIVATIVES, PREPARATION AND THERAPEUTIC USE THEREOF” (SANOFI-AVENTIS, priority 2008, published 2010).

Each structure is given as a SMILES string. pEC50: −log10 of the molar value.

This assay concerns the target T1, murine Nurr1 receptor (Mus musculus, UniProt Q06219).
T1 construct: a cell line (N2A) endogenously expressing the murine Nurr1 receptor; host or cells: Neuro-2A (N2A) mouse neuroblastoma cells stably transfected with 8NBRE-luciferase
In words: In vitro activity on N2A cells (8NBRE-luciferase reporter). The settings on record: N2A cell line endogenously expressing Nurr1, stably transfected with NBRE-luciferase; 24 hours incubation. The class given is cell-based. How it is done:
Evaluation of the In Vitro Activity on N2A Cells
The activity of the compounds according to the invention was evaluated on a cell line (N2A) endogenously expressing the murine Nurr1 receptor and stably transfected with the NOT binding response element (NBRE) coupled to the luciferase reporter gene. The EC50 values are between 0.01 and 1000 nM. The tests were performed according to the procedure described hereinbelow.
The cell line Neuro-2A is obtained from a standard commercial source (ATCC). The clone Neuro-2A was obtained from a spontaneous tumour originating from a strain of albino mice A by R. J Klebe et al. This line Neuro-2A is then stably transfected with 8NBRE-luciferase. The N2A-8NBRE cells are cultured to the point of confluence in 75 cm^2 culture flasks containing DMEM supplemented with 10% foetal calf serum, 4.5 g/L of glucose and 0.4 mg/ml of geneticin. After culturing for one week, the cells are recovered with 0.25% trypsin for 30 seconds and then resuspended in DMEM without phenol red, containing 4.5 g/L of glucose and 10% Hyclone defatted serum, and placed in white, transparent-based 96-well plates. The cells are deposited at a rate of 60 000 per well in 75 μL for 24 hours before adding the products. […] The plates are then measured in a microplate luminescence counter, after having been sealed with an adhesive film. […]

T1 sequence (Q06219 whole entry): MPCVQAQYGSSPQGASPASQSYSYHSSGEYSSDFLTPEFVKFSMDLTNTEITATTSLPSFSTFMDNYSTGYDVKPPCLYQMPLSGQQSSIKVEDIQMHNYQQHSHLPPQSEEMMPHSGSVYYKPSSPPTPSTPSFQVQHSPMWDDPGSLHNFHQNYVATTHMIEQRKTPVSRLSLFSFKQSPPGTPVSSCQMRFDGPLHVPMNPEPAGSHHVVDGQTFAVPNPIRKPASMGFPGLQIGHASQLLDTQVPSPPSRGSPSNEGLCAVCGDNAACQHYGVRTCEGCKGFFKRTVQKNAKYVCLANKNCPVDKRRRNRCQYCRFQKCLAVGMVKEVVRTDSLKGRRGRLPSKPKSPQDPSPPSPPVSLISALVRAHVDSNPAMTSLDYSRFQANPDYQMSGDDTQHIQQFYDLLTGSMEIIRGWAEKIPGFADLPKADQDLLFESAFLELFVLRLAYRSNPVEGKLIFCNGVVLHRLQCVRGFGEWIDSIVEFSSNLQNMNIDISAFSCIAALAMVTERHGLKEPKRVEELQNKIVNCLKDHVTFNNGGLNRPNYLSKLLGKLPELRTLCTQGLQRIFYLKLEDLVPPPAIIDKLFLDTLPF

One may read the pEC50 as −log10 of the EC50, conventionally taken in molar units. `O=C(c1cn2cc(Cl)ccc2n1)c1cccs1` [Example 4, (6-Chloroimidazo[1,2-a]pyridin-2-yl)(thien-2-yl)methanone] gave a pEC50 of 8.33.
